These results are taken from patent US20090253719A1, “CRYSTALLINE SALT FORMS OF ANTIFOLATE COMPOUNDS AND METHODS OF MANUFACTURING THEREOF” (Chelsea Therapeutics, Inc., priority 2008, published 2009).

pEC50: −log10 of the molar value.

How the values of data set [1] were obtained:
A salt screen of this compound was conducted with various pharmaceutically acceptable counterions to analyze aqueous solubility of the formed salts. Formed solids suspected of forming salts were analyzed by X-ray powder diffraction (XRPD).

The subject of data set [2] is CCRF-CEM cells. As to the kind of experiment: Growth inhibition of CCRF-CEM cells, continuous (120 hr) drug exposure. Type of data set: cell-based. The conditions noted are these: Homo sapiens, continuous 120 hr exposure. How it is done: The human T-lymphoblastic leukemia cell line CCRF-CEM (described in Foley G F, et al., Cancer 1965; 18:522-9) was cultured as described in McCloskey D E, et al., J Biol Chem 1991; 266:6181-7 (both of which are incorporated herein by reference in their entirety) and verified to be negative for Mycoplasma contamination (Mycoplasma Plus PCR primers, Stratagene, La Jolla, Calif.).

The nature of data set [3]: Plasma concentration after oral L- or D-CH-1504 in non-fasted female Lewis rats. Type of data set: in vivo. The method, then:
L- or D-CH-1504 was administered once orally to non-fasted female Lewis rats at a dose of 10 mg/kg (vehicle: 0.11% carboxymethylcellulose/0.45% TWEEN 80, formulation: suspension). About 750 μL of blood was collected from the jugular vein at 1 and 3 hours after administration. And then, whole of blood was collected from the femoral vein under diethyl ether anesthesia at 6 hours after administration. The collected blood was immediately centrifuged to obtain a plasma sample. L- and D-CH-1504 were extracted from the plasma by solid-phase extraction and were then determined with a LC/MS/MS.

The nature of data set [4]: Hygroscopicity study (storage at controlled relative humidity). Type of data set: physicochemical. The conditions noted are these: 75% relative humidity for five days. From the text:
Hygroscopicity and approximate solubility in aqueous and buffered solutions of ammonium, besylate, calcium, esylate, sulfate, HCl, mesylate, napsylate, potassium, disodium, and tosylate salts were compared. In the hygroscopicity study, the salts were subjected to 75% relative humidity for five days.
An amorphous form was also generated. […] As described above, disodium salt Form A was a crystalline solid obtained using a water/IPA system or a water/acetone system. […] Heating was continued to achieve a temperature of 90° C. Crystallinity was not regained upon cooling to ambient.

In the case of `C=C(CC(NC(=O)c1ccc(CCc2ccc3nc(N)nc(N)c3c2)cc1)C(=O)O)C(=O)O` (racemic) [CH-1504, 2-{4-[2-(2,4-diamino-quinazolin-6-yl)-ethyl]-benzoylamino}-4-methylene-pentanedioic acid], the “solubility of free acid form” value in data set [1] was “poor solubility”. In data set [2], the negative logarithm of the EC50 (pEC50) is 8.07. Further, the isomerization in vivo result in data set [3] (by 6 hours after administration of each enantiomer, all samples) was “could not be confirmed”.

In data set [2], `C=C(C[C@@H](NC(=O)c1ccc(CCc2ccc3nc(N)nc(N)c3c2)cc1)C(=O)O)C(=O)O` [D-CH-1504] had a negative logarithm of the EC50 (pEC50) of 7.54. Besides, the “Plasma conc. of D-CH-1504” value in data set [3] (1 h after 10 mg/kg oral, non-fasted female Lewis rats, individual animals) was 11.0 ng/mL. For the same compound, the concentration at 3 h in data set [3] (female, Lewis, rat, plasma, oral, 10 mg/kg, 3 h after 10 mg/kg oral, non-fasted female Lewis rats, individual animals, read-out: Plasma conc. of D-CH-1504) amounted to 14.3 ng/mL. In addition, the concentration at 6 h in data set [3] (female, Lewis, rat, plasma, oral, 10 mg/kg, 6 h after 10 mg/kg oral, non-fasted female Lewis rats, individual animals, read-out: Plasma conc. of D-CH-1504) is 8.34 ng/mL.

In turn, `C=C(C[C@H](NC(=O)c1ccc(CCc2ccc3nc(N)nc(N)c3c2)cc1)C(=O)O)C(=O)O` [L-CH-1504, (S)-2-{4-[2-(2,4-diamino-quinazolin-6-yl)-ethyl]-benzoylamino}-4-methylene-pentanedioic acid] had a pEC50 in data set [2] of 8.21.

On to `CN(Cc1cnc2nc(N)nc(N)c2n1)c1ccc(C(=O)NC(CCC(=O)O)C(=O)O)cc1` (stereo not shown) [MTX, methotrexate, reference compound], for which, in data set [2], the negative-log EC50 (pEC50) is 7.82.

In the case of `C=C(CC(NC(=O)c1ccc(CCc2ccc3nc(N)nc(N)c3c2)cc1)C(=O)O)C(=O)O.O=S(=O)(O)c1ccc2ccccc2c1` (stereo not shown) [napsylate salt], in data set [4], the hygroscopicity study outcome was “remained unchanged”.

A word on the pEC50: it is −log10 of the EC50, conventionally taken in molar units. A high value points to a low EC50.
